# Test results as given in US7132409B2, “Adenosine derivatives and use thereof” (Toa Eiyo Ltd., priority 2000, dated 2006).
# Read-outs that look alike come from different tables or passages of the source.
# Assays:
# optic nerve failure = assay: Model of retina failure induced through reperfusion after transient ischemia in rat; format: in vivo
# blood flow in the retina = assay: Effects on blood vessel diameter and blood flow in the retina of rabbits; format: in vivo
# [1] = Test Example 2: saturation solubility in isotonic borate buffer (HPLC); conditions: for solubility at 6 h: isotonic borate buffer, 20 °C, pH 7, aqueous buffer, thermodynamic from solid
# Procedure: (§1) Each of the test compounds was dispersed in an isotonic borate buffer (pH 7.0). The resultant mixture was shaken at 20° C. for 6 hours and then centrifuged. The concentration of the test compound in the supernatant was measured through HPLC for calculation of saturation solubility of the compound.
# (§2) Detector: UV absorptiometer (wavelength: 270 nm)
# (§3) Column: ODS column (inner diameter 4.6 mm, length 15 cm)
# (§4) Mobile phase: An acetonitrile/triethylammonium acetate buffer (pH 7) mixture
# [2] = tested on: ocular tension of Japanese white rabbits; assay: Test Example 1: effect of lowering ocular tension after instillation in rabbit eyes; format: in vivo; conditions: 0.1% solution, 50 μL instilled to one eye; for AUC (area under the curve of time versus change in difference in ocular tension, treated eye vs eye drop base eye): up to 480 min
# Procedure: Each of the mentioned compounds was dissolved in saline containing polysorbate 80 (hereinafter the saline will be referred to as “eye drop base A”) or in a borate buffer (pH 7.0) containing polysorbate 80 (hereinafter the solution will be referred to as “eye drop base B”) (polysorbate 80 content of each base: 5 mg/mL).
# Japanese white rabbits (male; Kitayama Labes Co., Ltd.) (weight: 2.7–3.9 kg) were employed in the test for measuring ocular tension. The rabbits were retained in a box-type fixation apparatus during the test.
# The ocular tension of each rabbit was measured by use of a Model 30 Classic Pneumatonometer (product of Mentor) without anesthesia. Before the ocular tension was measured, 0.4% oxybuprocaine hydrochloride (Benoxil 0.4% eye drop solution, product of Santen Pharmaceutical Co., Ltd.) was instilled into the eyes of each rabbit, to thereby anesthetize the surface of the cornea. The ocular tension of each rabbit was measured several times at predetermined intervals. Three measurements of ocular tension, as measured when a constant value was reached, were averaged, and the average value was employed as representing the ocular tension.
# A 0.1% solution of each test compound (50 μL) was instilled to one eye of each of the respective rabbits, and simultaneously the eye drop base (50 μL) was instilled to the other eye. The ocular tensions of both eyes were measured 60 minutes before instillation of the test compound; 0 minute immediately before instillation; and 30, 60, 90, 120, 150, 180, 240, 300, 360, 420, and 480 minutes after instillation. Four to six rabbits were employed for each test compound. For control, each eye drop base was instilled to both eyes of rabbits, and the ocular tension thereof was measured in a manner similar to that described above.
# For each test compound, the effect of lowering ocular tension was evaluated on the basis of the following values: the area under the curve of time versus change in difference between the ocular tension of the eye to which the test compound was instilled and that of the eye to which the eye drop base was instilled (hereinafter the area will be abbreviated as AUC (mmHg•min)); and the maximum value of difference between the ocular tension of the eye to which the test compound was instilled and that of the eye to which the eye drop base was instilled (hereinafter the value will be abbreviated as Emax (mmHg)).
# [3] = pH 7
# Procedure: as §1, §2, §3, §4
# [4] = eye drop base B (borate buffer pH 7.0 with polysorbate 80)
# [5] = eye drop base A (saline with polysorbate 80)
SMILES,solubility at 6 h [1] [µg/mL],"Emax (maximum difference in ocular tension, treated eye vs eye drop base eye) [2, 4] [mmHg]","AUC (area under the curve of time versus change in difference in ocular tension, treated eye vs eye drop base eye) [2, 4] [mmHg · min]","Emax (maximum difference in ocular tension, treated eye vs eye drop base eye) [2, 5] [mmHg]","AUC (area under the curve of time versus change in difference in ocular tension, treated eye vs eye drop base eye) [2, 5] [mmHg · min]",further results
"N#CCCCCC#Cc1nc(N)c2ncn([C@@H]3O[C@H](CO)[C@@H](O)[C@H]3O)c2n1 [Compound 1, 2-(6-cyano-1-hexyn-1-yl)adenosine]",16600,−4.3,−1303.1,–,–,melting point: 91 to 94 °C; effects of protecting optic nerve failure (optic nerve failure): particularly excellent effects of protecting optic nerve failure; effects of promoting vasodilatation and blood flow in the retina (blood flow in the retina): particularly excellent effects of promoting vasodilatation and blood flow in the retina
"N#CCCCC#Cc1nc(N)c2ncn([C@@H]3O[C@H](CO)[C@@H](O)[C@H]3O)c2n1 [Referential Compound 1, 2-(5-cyano-1-pentyn-1-yl)adenosine]",–,−3.0,−584.0,–,–,–
"CCCCC#Cc1nc(N)c2ncn([C@@H]3O[C@H](C(=O)NC)[C@@H](O)[C@H]3O)c2n1 [Referential Compound 6, 2-(1-hexyn-1-yl)adenosine-4′-methylcarboxamide]",–,–,–,−6.0,−1838.3,"Saturation solubility ([1]; isotonic borate buffer pH 7.0, shaken at 20° C. for 6 hours): 500 µg/mL"
"CCCCCCC#Cc1nc(N)c2ncn([C@@H]3O[C@H](CO)[C@@H](O)[C@H]3O)c2n1 [Referential Compound 4, 2-(1-octyn-1-yl)adenosine]",300,–,–,−4.2,−1093.5,–
"Nc1nc(C#CCCCCN2C(=O)c3ccccc3C2=O)nc2c1ncn2[C@@H]1O[C@H](CO)[C@@H](O)[C@H]1O [Referential Compound 5, 2-(6-phthalimidyl-1-hexyn-1-yl)adenosine]",700,–,–,−6.3,−1471.0,–
"N#CCCCCCC#Cc1nc(N)c2ncn([C@@H]3O[C@H](CO)[C@@H](O)[C@H]3O)c2n1 [Referential Compound 2, 2-(7-cyano-1-heptyn-1-yl)adenosine]",–,−2.6,−844.5,–,–,–
"Nc1nc(C#CC2CCCC2)nc2c1ncn2[C@@H]1O[C@H](CO)[C@@H](O)[C@H]1O [Referential Compound 3, 2-cyclopentylethynyladenosine]",–,−4.4,−1532.7,–,–,Saturation solubility [3]: 1400 µg/mL
"N#CCCCCC#Cc1nc(N)c2ncn([C@@H]3O[C@H](COP(=O)([O-])[O-])[C@@H](O)[C@H]3O)c2n1.[Na+].[Na+] [Compound 2, disodium 2-(6-cyano-1-hexyn-1-yl)adenosine 5′-monophosphate]",> 200000,−6.0,−1965.0,–,–,–
